From ChEMBL document CHEMBL3132769, “Fragment growing to retain or alter the selectivity of anchored kinase hinge-binding fragments” (Medchemcomm, 2014) come the findings set out here.

For assay [1], the target named is T1, Serine/threonine-protein kinase DCLK2 (Homo sapiens) (UniProt Q8N568).
T1 sequence (whole entry): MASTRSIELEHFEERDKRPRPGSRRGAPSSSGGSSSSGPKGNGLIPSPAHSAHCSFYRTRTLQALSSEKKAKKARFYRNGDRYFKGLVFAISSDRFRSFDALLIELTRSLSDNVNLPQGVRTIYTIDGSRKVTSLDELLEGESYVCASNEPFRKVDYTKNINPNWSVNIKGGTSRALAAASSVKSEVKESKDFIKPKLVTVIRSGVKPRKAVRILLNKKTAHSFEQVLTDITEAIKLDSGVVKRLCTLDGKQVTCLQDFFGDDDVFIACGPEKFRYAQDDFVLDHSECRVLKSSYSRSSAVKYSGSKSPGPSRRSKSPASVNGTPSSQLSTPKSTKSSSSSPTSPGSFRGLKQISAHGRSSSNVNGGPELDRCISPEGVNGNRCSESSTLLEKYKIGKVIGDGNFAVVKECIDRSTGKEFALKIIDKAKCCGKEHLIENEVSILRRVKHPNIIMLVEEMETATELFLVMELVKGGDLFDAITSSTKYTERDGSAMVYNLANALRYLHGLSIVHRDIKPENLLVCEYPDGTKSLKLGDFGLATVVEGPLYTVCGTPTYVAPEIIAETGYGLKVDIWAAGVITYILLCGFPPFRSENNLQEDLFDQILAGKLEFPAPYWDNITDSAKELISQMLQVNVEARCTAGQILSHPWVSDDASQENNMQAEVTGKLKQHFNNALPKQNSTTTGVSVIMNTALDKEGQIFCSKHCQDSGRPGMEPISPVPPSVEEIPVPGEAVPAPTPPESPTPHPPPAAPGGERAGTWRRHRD
The assay is described as follows: Inhibition of human full length DCAMKL2 expressed in baculovirus assessed as substrate phosphorylation using fluorescence-labelled peptides as substrate at 0.06 uM after 90 mins by microfluidic peptide phosphorylation assay.

The target in assay [2] is Serine/threonine-protein kinase MARK2 (Homo sapiens) (UniProt Q7KZI7). As to the kind of experiment: Inhibition of human full length MARK2 expressed in baculovirus assessed as substrate phosphorylation using fluorescence-labelled peptides as substrate at 0.06 uM after 90 mins by microfluidic peptide phosphorylation assay.
Chain of Serine/threonine-protein kinase MARK2 (Homo sapiens) (Q7KZI7 whole entry, the tested form may be a part): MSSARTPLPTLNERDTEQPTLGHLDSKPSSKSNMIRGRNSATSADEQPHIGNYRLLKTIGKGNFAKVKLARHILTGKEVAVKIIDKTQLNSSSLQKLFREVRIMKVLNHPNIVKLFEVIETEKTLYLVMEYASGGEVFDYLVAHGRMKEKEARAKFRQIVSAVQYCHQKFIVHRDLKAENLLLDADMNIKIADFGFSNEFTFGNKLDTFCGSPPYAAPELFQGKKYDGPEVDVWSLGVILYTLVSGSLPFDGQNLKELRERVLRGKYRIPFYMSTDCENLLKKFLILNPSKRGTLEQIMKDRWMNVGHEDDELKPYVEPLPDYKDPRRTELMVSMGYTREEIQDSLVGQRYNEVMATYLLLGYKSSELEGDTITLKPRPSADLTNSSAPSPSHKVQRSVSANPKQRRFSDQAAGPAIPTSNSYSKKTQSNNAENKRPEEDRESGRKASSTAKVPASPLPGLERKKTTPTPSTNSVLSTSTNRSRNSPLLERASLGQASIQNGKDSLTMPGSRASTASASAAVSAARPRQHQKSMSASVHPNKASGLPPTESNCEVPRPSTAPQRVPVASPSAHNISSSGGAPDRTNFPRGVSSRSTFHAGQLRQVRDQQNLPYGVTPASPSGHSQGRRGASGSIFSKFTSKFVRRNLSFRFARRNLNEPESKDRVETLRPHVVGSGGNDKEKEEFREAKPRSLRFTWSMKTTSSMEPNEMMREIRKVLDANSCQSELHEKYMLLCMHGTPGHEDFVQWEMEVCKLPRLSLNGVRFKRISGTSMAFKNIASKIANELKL
Assay [3] has as its target Tyrosine-protein kinase Fer (Homo sapiens) (UniProt P16591). The assay is described as follows: Inhibition of human FER catalytic domain expressed in baculovirus assessed as substrate phosphorylation using fluorescence-labelled peptides as substrate at 0.06 uM after 90 mins by microfluidic peptide phosphorylation assay.
For assay [4], the target named is T2, cGMP-dependent protein kinase 1 (Homo sapiens) (UniProt Q13976).
T2 sequence (whole entry): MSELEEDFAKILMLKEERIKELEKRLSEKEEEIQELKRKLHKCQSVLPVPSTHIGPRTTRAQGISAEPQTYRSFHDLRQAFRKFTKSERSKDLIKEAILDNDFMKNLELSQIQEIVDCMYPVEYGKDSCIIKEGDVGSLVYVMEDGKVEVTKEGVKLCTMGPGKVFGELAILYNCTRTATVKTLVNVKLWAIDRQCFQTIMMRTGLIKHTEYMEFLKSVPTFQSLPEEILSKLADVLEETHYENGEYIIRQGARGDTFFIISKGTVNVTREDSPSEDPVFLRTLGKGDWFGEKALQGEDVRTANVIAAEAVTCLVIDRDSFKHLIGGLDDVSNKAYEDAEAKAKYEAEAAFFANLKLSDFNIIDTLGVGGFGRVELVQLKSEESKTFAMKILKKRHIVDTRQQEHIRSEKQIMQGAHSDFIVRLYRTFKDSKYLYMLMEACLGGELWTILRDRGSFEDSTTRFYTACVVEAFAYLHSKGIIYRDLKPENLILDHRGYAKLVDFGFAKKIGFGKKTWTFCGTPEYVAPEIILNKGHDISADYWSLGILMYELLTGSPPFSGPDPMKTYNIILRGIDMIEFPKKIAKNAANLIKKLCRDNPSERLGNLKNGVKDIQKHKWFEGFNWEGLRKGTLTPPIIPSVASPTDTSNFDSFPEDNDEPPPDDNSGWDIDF
As to the kind of experiment: Inhibition of human full length PKG-1beta expressed in baculovirus assessed as substrate phosphorylation using fluorescence-labelled peptides as substrate at 9 uM after 90 mins by microfluidic peptide phosphorylation assay.

Assay [5] deals with Tyrosine-protein kinase Lyn (Homo sapiens) (UniProt P07948). The assay is described as follows: Inhibition of human full length LYN expressed in baculovirus assessed as substrate phosphorylation using fluorescence-labelled peptides as substrate at 9 uM after 90 mins by microfluidic peptide phosphorylation assay.
Chain of Tyrosine-protein kinase Lyn (Homo sapiens) (P07948 2-512 limits assumed): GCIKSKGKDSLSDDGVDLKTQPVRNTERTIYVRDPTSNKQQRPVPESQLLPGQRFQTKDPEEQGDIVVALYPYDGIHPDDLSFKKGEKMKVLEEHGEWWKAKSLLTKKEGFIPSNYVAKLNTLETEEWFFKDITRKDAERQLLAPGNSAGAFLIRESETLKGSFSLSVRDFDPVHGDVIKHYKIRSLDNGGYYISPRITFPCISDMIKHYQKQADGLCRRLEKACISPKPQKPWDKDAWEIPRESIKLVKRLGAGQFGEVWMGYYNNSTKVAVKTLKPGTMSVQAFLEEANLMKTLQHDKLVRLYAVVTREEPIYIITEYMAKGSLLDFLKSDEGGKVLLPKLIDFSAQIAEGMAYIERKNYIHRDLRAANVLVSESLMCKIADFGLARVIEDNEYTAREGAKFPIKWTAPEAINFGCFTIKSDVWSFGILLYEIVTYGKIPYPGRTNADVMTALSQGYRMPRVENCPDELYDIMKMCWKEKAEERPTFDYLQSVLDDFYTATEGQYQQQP
Assay [6] addresses Casein kinase I isoform delta (Homo sapiens) (UniProt P48730). As to the kind of experiment: Inhibition of human CK1D catalytic domain expressed in Escherichia coli cell assessed as substrate phosphorylation using fluorescence-labelled peptides as substrate at 9 uM after 90 mins by microfluidic peptide phosphorylation assay.
The target in assay [7] is Cyclin-dependent kinase 2 (Homo sapiens) (UniProt P24941). The assay is described as follows: Inhibition of human full length CDK2 expressed in baculovirus assessed as substrate phosphorylation using fluorescence-labelled peptides as substrate at 8 uM after 90 mins by microfluidic peptide phosphorylation assay.
In assay [8] the target is T3, MAP kinase-activated protein kinase 5 (Homo sapiens) (UniProt Q8IW41).
T3 sequence (whole entry): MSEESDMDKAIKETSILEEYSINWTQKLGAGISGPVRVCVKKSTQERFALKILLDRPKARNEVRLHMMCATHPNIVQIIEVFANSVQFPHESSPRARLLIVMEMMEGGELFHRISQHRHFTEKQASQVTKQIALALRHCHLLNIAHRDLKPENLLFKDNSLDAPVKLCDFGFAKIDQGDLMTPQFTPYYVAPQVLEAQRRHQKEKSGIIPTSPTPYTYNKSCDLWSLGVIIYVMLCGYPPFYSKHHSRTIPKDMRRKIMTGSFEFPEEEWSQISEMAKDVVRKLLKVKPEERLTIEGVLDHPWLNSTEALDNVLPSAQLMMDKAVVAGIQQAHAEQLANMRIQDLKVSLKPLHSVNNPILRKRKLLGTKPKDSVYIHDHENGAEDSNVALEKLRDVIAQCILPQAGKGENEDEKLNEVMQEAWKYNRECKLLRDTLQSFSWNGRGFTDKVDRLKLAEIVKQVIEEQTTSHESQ
The assay is described as follows: Inhibition of human full length PRAK expressed in baculovirus assessed as substrate phosphorylation using fluorescence-labelled peptides as substrate at 8 uM after 90 mins by microfluidic peptide phosphorylation assay.

The target in assay [9] is Epidermal growth factor receptor (Homo sapiens) (UniProt P00533). The assay is described as follows: Inhibition of human EGFR catalytic domain expressed in baculovirus assessed as substrate phosphorylation using fluorescence-labelled peptides as substrate at 8 uM after 90 mins by microfluidic peptide phosphorylation assay.
Chain of Epidermal growth factor receptor (Homo sapiens) (P00533 whole entry, the tested form may be a part): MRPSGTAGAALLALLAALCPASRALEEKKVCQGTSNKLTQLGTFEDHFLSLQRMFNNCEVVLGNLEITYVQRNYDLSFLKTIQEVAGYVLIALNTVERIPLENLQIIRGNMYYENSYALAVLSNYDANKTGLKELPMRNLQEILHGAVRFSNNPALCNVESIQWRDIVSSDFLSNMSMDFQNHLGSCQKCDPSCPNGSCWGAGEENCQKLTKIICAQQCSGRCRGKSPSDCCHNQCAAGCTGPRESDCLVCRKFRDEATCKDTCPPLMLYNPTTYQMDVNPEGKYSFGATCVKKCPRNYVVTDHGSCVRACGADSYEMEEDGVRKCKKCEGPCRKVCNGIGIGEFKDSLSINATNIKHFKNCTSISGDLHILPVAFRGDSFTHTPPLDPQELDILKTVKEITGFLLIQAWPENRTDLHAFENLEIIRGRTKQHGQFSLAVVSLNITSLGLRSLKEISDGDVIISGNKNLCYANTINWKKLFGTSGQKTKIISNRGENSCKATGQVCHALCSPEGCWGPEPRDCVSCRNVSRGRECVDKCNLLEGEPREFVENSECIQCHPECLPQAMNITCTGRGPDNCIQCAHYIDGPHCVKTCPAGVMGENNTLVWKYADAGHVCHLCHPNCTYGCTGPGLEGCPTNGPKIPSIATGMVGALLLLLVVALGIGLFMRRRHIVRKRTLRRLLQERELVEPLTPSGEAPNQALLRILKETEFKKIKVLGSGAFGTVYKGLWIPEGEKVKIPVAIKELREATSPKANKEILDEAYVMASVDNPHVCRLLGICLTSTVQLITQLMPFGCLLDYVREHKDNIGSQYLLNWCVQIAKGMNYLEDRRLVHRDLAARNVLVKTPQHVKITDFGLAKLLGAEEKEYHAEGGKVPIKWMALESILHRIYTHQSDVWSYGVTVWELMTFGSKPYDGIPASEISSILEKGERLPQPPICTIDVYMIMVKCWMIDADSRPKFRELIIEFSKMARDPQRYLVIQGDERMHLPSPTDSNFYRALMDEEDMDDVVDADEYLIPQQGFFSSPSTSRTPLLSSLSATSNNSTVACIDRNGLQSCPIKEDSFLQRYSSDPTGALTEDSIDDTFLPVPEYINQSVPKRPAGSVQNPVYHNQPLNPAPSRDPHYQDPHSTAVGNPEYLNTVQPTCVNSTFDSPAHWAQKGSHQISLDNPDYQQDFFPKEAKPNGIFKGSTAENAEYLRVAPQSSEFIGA
For assay [10], the target named is Mitogen-activated protein kinase 3 (Homo sapiens) (UniProt P27361). As to the kind of experiment: Inhibition of human full length ERK1 expressed in Escherichia coli cell assessed as substrate phosphorylation using fluorescence-labelled peptides as substrate at 1000 uM after 90 mins by microfluidic peptide phosphorylation assay.
Chain of Mitogen-activated protein kinase 3 (Homo sapiens) (P27361 whole entry, the tested form may be a part): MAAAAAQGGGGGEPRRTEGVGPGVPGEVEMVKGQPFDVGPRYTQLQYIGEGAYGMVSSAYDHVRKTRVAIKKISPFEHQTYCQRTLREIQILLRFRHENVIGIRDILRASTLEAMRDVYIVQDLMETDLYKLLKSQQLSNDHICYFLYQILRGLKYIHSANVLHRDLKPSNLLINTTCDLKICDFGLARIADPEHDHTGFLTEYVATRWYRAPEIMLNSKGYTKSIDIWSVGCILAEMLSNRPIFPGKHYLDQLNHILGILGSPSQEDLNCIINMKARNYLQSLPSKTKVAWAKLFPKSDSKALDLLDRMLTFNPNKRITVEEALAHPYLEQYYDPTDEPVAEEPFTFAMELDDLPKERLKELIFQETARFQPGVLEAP
Assay [11] has as its target Vascular endothelial growth factor receptor 2 (Homo sapiens) (UniProt P35968). As to the kind of experiment: Inhibition of human KDR cytoplasmic domain expressed in baculovirus assessed as substrate phosphorylation using fluorescence-labelled peptides as substrate at 1000 uM after 90 mins by microfluidic peptide phosphorylation assay.

Chain of Tyrosine-protein kinase Fer (Homo sapiens) (P16591 whole entry, looked up, the tested form may be a part): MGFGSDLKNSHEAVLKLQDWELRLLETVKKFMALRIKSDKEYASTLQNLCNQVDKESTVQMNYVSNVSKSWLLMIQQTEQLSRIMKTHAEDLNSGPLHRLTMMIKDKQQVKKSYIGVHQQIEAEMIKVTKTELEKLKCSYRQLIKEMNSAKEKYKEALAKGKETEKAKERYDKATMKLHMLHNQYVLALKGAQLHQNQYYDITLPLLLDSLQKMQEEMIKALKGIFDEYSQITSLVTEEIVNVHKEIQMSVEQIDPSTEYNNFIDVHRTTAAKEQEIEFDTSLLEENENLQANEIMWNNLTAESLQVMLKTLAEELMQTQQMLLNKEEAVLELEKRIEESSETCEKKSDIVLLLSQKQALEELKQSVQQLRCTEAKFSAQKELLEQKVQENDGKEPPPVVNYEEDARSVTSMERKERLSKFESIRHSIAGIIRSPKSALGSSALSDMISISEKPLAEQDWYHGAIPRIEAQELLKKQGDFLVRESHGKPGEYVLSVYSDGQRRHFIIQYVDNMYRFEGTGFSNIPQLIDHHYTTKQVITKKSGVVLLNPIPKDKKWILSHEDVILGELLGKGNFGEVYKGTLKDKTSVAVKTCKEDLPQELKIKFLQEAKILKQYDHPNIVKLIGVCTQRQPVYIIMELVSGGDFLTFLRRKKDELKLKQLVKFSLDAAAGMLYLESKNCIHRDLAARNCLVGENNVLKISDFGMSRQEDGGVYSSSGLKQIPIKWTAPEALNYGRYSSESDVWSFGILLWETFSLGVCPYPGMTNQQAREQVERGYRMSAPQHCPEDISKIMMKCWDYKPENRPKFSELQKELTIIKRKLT
Chain of Vascular endothelial growth factor receptor 2 (Homo sapiens) (P35968 whole entry, the tested form may be a part): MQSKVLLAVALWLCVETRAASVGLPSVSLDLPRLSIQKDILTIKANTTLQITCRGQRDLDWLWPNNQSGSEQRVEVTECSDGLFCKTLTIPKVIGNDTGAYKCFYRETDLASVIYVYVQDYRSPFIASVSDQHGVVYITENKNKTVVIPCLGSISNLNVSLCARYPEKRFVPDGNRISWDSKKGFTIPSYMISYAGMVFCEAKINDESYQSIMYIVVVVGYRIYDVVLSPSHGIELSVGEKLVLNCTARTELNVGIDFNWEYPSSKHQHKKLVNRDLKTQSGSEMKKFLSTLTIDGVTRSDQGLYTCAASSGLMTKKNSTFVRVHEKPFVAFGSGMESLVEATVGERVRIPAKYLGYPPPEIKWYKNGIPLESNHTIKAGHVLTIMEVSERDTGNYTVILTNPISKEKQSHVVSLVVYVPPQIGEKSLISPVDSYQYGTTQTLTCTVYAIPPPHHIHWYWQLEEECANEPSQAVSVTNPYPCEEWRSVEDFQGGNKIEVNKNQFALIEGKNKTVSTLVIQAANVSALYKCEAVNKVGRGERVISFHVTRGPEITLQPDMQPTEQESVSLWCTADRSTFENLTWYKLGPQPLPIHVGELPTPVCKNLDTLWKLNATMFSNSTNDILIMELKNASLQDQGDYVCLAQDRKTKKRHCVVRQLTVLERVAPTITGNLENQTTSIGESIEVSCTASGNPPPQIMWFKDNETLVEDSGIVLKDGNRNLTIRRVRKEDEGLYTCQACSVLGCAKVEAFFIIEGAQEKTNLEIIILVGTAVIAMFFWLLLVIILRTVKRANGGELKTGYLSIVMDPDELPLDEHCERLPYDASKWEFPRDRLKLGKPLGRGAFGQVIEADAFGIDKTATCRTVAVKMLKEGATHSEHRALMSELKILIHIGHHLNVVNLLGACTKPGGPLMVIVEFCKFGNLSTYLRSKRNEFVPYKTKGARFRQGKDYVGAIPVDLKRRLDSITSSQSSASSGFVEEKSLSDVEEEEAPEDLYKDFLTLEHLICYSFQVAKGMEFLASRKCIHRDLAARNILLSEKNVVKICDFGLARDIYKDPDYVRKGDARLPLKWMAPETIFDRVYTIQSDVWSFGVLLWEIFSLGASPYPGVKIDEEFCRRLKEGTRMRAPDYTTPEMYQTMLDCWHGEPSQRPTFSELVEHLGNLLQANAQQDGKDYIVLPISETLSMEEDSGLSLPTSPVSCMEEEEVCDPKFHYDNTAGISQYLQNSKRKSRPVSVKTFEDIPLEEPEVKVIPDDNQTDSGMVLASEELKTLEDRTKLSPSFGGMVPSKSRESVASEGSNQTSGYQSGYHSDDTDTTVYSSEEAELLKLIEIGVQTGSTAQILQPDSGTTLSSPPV

In general, inhibition refers to the percentage by which the read-out fell short of the control. Take `NC1(Cc2ccc(Cl)cc2)CCN(c2ncnc3[nH]ccc23)CC1`: the results for the inhibition in [1], in [2] and in assay [3] were 0%, 0% and 4%, respectively.

`NCC1CN(c2ncnc3[nH]c4cnccc4c23)CCO1` (stereo unspecified): the inhibition in [4] turned out to be 12.5%; in [5] it was 42%; in assay [6] it was 39.5%.

On to `NCC1CCN(c2ncnc3[nH]ccc23)CC1`, for which the inhibition is 7% in assay [7], 51.5% in assay [8] and 33% in assay [9].

Take `c1cnc2[nH]ccc2c1`: the inhibition is 36% in [10] and 89.5% in assay [11].
